# Measured values reported in PubChem BioAssay (NCI).
#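 Five concentrations, 48 hours, 96-well plates. The concentration for full growth arrest is given as TGI.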
# Key:
# Experiment in all cases: NCI-60 cell line screen, 48 h
# [1] = system: NCI-H23 lung
# [2] = system: NCI-H226 lung
# [3] = system: UACC-62 melanoma
# [4] = system: OVCAR-8 ovarian
# [5] = system: SNB-19 CNS
# [6] = system: MDA-N
# [7] = system: EKVX NSCLC
# [8] = system: HCT-116 colon
# [9] = system: RXF 393 renal
# [10] = system: OVCAR-4 ovarian
# [11] = system: A549 NSCLC
# [12] = system: NCI/ADR-RES ovarian
# [13] = system: UACC-257 melanoma
# [14] = system: KM12 colon
# [15] = system: SK-OV-3 ovarian
# [16] = system: MDA-MB-231 breast
# [17] = system: M14 melanoma
# [18] = system: U251 CNS
# [19] = system: SR leukemia
# [20] = system: T-47D breast
# [21] = system: HOP-62 NSCLC
# [22] = system: SN12C renal
# [23] = system: DU-145 prostate
# [24] = system: UO-31 renal
# [25] = system: COLO 205 colon
# [26] = system: SK-MEL-28 melanoma
# [27] = system: MOLT-4 leukemia
# [28] = system: MCF7 breast
# [29] = system: SK-MEL-2 melanoma
# [30] = system: K-562 leukemia
# [31] = system: RPMI-8226 leukemia
# [32] = system: SW-620 colon
# [33] = system: A498 renal
# [34] = system: PC-3 prostate
# [35] = system: SNB-75 CNS
# [36] = system: IGROV1 ovarian
# [37] = system: 786-0 renal
# [38] = system: HS 578T breast
# [39] = system: SF-268 CNS
# [40] = system: HCC-2998 colon
# [41] = system: BT-549 breast
# [42] = system: SF-295 CNS
# [43] = system: MDA-MB-435
# [44] = system: OVCAR-3 ovarian
# [45] = system: HCT-15 colon
# [46] = system: NCI-H460 lung
# [47] = system: ACHN renal
# [48] = system: OVCAR-5 ovarian
# [49] = system: LOX IMVI melanoma
# [50] = system: TK-10 renal
# [51] = system: HT29 colon
# [52] = system: CAKI-1 renal
# [53] = system: HOP-92 NSCLC
# [54] = system: SK-MEL-5 melanoma
# [55] = system: SF-539 CNS
# [56] = system: MALME-3M melanoma
# [57] = system: CCRF-CEM leukemia
# [58] = system: HL-60(TB) leukemia
# [59] = system: NCI-H522 lung
smiles,measurement,setting,value
O=C(O)c1ccc(N=C(C(=Nc2ccc(C(=O)O)cc2)c2ccccc2)c2ccccc2)cc1,TGI,[1],> 100 µM
same,TGI,[2],> 100 µM
same,TGI,[3],> 100 µM
same,TGI,[4],> 100 µM
same,TGI,[5],> 100 µM
same,TGI,[6],> 100 µM
same,TGI,[7],> 100 µM
same,TGI,[8],> 100 µM
same,TGI,[9],> 100 µM
same,TGI,[10],> 100 µM
same,TGI,[11],> 100 µM
same,TGI,[12],> 100 µM
same,TGI,[13],> 100 µM
same,TGI,[14],> 100 µM
same,TGI,[15],> 100 µM
same,TGI,[16],> 100 µM
same,TGI,[17],> 100 µM
same,TGI,[18],> 100 µM
same,TGI,[19],> 100 µM
same,TGI,[20],> 100 µM
same,TGI,[21],> 100 µM
same,TGI,[22],> 100 µM
same,TGI,[23],> 100 µM
same,TGI,[24],> 100 µM
same,TGI,[25],> 100 µM
same,TGI,[26],> 100 µM
same,TGI,[27],> 100 µM
same,TGI,[28],> 100 µM
same,TGI,[29],> 100 µM
same,TGI,[30],> 100 µM
same,TGI,[31],> 100 µM
same,TGI,[32],> 100 µM
same,TGI,[33],> 100 µM
same,TGI,[34],> 100 µM
same,TGI,[35],> 100 µM
same,TGI,[36],> 100 µM
same,TGI,[37],> 100 µM
same,TGI,[38],> 100 µM
same,TGI,[39],> 100 µM
same,TGI,[40],> 100 µM
same,TGI,[41],> 100 µM
same,TGI,[42],> 100 µM
same,TGI,[43],> 100 µM
same,TGI,[44],> 100 µM
same,TGI,[45],> 100 µM
same,TGI,[46],> 100 µM
same,TGI,[47],> 100 µM
same,TGI,[48],> 100 µM
same,TGI,[49],> 100 µM
same,TGI,[50],> 100 µM
C1C2CC3CC1CC(Nc1nc(NC45CC6CC(CC(C6)C4)C5)nc(NC45CC6CC(CC(C6)C4)C5)n1)(C2)C3,TGI,[1],> 100 µM
same,TGI,[2],> 100 µM
same,TGI,[3],> 100 µM
same,TGI,[51],> 100 µM
same,TGI,[4],> 65.5 µM
same,TGI,[5],> 100 µM
same,TGI,[6],> 100 µM
same,TGI,[52],> 100 µM
same,TGI,[53],> 100 µM
same,TGI,[7],> 77.5 µM
same,TGI,[8],> 100 µM
same,TGI,[9],> 100 µM
same,TGI,[10],> 100 µM
same,TGI,[11],> 100 µM
same,TGI,[12],> 100 µM
same,TGI,[13],> 100 µM
same,TGI,[14],> 51.5 µM
same,TGI,[54],> 42.8 µM
same,TGI,[15],> 100 µM
same,TGI,[16],> 100 µM
same,TGI,[17],> 100 µM
same,TGI,[18],> 100 µM
same,TGI,[19],> 100 µM
same,TGI,[20],> 100 µM
same,TGI,[21],> 100 µM
same,TGI,[22],> 100 µM
same,TGI,[55],> 100 µM
same,TGI,[23],> 100 µM
same,TGI,[24],> 100 µM
same,TGI,[56],> 100 µM
same,TGI,[25],> 94.9 µM
same,TGI,[26],> 93.2 µM
same,TGI,[27],> 100 µM
same,TGI,[28],> 100 µM
same,TGI,[29],> 100 µM
same,TGI,[30],> 100 µM
same,TGI,[31],> 100 µM
same,TGI,[32],> 100 µM
same,TGI,[33],> 100 µM
same,TGI,[34],> 100 µM
same,TGI,[35],> 79.2 µM
same,TGI,[37],> 44.1 µM
same,TGI,[38],> 100 µM
same,TGI,[39],> 100 µM
same,TGI,[40],> 100 µM
same,TGI,[57],> 100 µM
same,TGI,[58],> 100 µM
same,TGI,[41],> 100 µM
same,TGI,[42],> 100 µM
same,TGI,[43],> 100 µM
same,TGI,[44],> 100 µM
same,TGI,[45],> 100 µM
same,TGI,[46],> 100 µM
same,TGI,[47],> 100 µM
same,TGI,[48],> 100 µM
same,TGI,[49],> 52.1 µM
same,TGI,[50],> 100 µM
O=C(O)CCC(=O)c1ccc[nH]1,TGI,[1],> 100 µM
same,TGI,[2],> 100 µM
same,TGI,[3],> 100 µM
same,TGI,[51],> 100 µM
same,TGI,[4],> 100 µM
same,TGI,[5],> 100 µM
same,TGI,[6],> 100 µM
same,TGI,[52],> 100 µM
same,TGI,[53],> 100 µM
same,TGI,[7],> 100 µM
same,TGI,[8],> 100 µM
same,TGI,[9],> 100 µM
same,TGI,[10],> 100 µM
same,TGI,[11],> 100 µM
same,TGI,[12],> 100 µM
same,TGI,[13],> 100 µM
same,TGI,[14],> 100 µM
same,TGI,[54],> 100 µM
same,TGI,[15],> 100 µM
same,TGI,[16],> 100 µM
same,TGI,[17],> 100 µM
same,TGI,[18],> 100 µM
same,TGI,[19],> 100 µM
same,TGI,[20],> 100 µM
same,TGI,[21],> 100 µM
same,TGI,[22],> 100 µM
same,TGI,[55],> 100 µM
same,TGI,[23],> 100 µM
same,TGI,[24],> 100 µM
same,TGI,[56],> 100 µM
same,TGI,[25],> 100 µM
same,TGI,[27],> 100 µM
same,TGI,[28],> 100 µM
same,TGI,[29],> 100 µM
same,TGI,[30],> 100 µM
same,TGI,[31],> 100 µM
same,TGI,[33],> 100 µM
same,TGI,[34],> 100 µM
same,TGI,[35],> 100 µM
same,TGI,[36],> 100 µM
same,TGI,[37],> 100 µM
same,TGI,[38],> 100 µM
same,TGI,[39],> 100 µM
same,TGI,[41],> 100 µM
same,TGI,[42],> 100 µM
same,TGI,[43],> 100 µM
same,TGI,[44],> 100 µM
same,TGI,[59],> 100 µM
same,TGI,[45],> 100 µM
same,TGI,[46],> 100 µM
same,TGI,[47],> 100 µM
same,TGI,[48],> 100 µM
same,TGI,[49],> 100 µM
same,TGI,[50],> 100 µM
CC(C)(Cl)C(Br)CCC(C)(Cl)C(Br)CBr (configuration not stated),TGI,[1],55.6 µM
same,TGI,[2],60.6 µM
same,TGI,[3],> 100 µM
same,TGI,[51],46.8 µM
same,TGI,[4],> 100 µM
same,TGI,[5],> 100 µM
same,TGI,[6],81.9 µM
same,TGI,[53],46 µM
same,TGI,[7],84.2 µM
same,TGI,[8],47.5 µM
same,TGI,[9],65.9 µM
same,TGI,[10],87.3 µM
same,TGI,[11],> 100 µM
same,TGI,[12],68 µM
same,TGI,[13],51 µM
same,TGI,[54],34.5 µM
same,TGI,[15],> 100 µM
same,TGI,[16],47.2 µM
same,TGI,[17],> 100 µM
same,TGI,[18],69.5 µM
same,TGI,[19],22.2 µM
same,TGI,[20],81.3 µM
same,TGI,[21],57.3 µM
same,TGI,[22],54.2 µM
same,TGI,[55],49.7 µM
same,TGI,[23],85.2 µM
same,TGI,[24],> 100 µM
same,TGI,[56],41 µM
same,TGI,[25],33.8 µM
same,TGI,[26],79.7 µM
same,TGI,[27],> 100 µM
same,TGI,[28],41.7 µM
same,TGI,[29],35.4 µM
same,TGI,[30],> 100 µM
same,TGI,[31],42.2 µM
same,TGI,[32],95.5 µM
same,TGI,[33],49.6 µM
same,TGI,[34],71 µM
same,TGI,[35],93.9 µM
same,TGI,[36],65.4 µM
same,TGI,[37],61.9 µM
same,TGI,[38],82.9 µM
same,TGI,[39],> 100 µM
same,TGI,[40],> 100 µM
same,TGI,[57],76.9 µM
same,TGI,[58],35.4 µM
same,TGI,[41],42.9 µM
same,TGI,[42],46 µM
same,TGI,[43],73.6 µM
same,TGI,[44],41.9 µM
same,TGI,[59],35.8 µM
same,TGI,[45],61.9 µM
same,TGI,[46],40.5 µM
same,TGI,[47],52.6 µM
same,TGI,[48],48.7 µM
same,TGI,[50],99.6 µM
